PMC7093416, “Selective USP7 inhibition elicits cancer cell killing through a p53-dependent mechanism” (Scientific Reports, 2020)

Tested on: panel of 484 cancer cell lines
Experiment: PRISM cancer cell line profiling, 5 days
Type: cell-based
Design: AUC: unit not given beside the values
Experimental: Cancer cell line profiling was performed using the Broad’s PRISM platform. Cell treatment and data analysis were performed as described in Yu et al[42]. Raw Luminex signal was converted to AUC values for each cell line as described. The resulting AUC profile for each compound was modeled against DepMap using the limma package in R[71]. Because hotspot mutation analysis was performed against DepMap, TP53 annotations in Fig. 6c,d are directly from DepMap.

CN1CCN(CCC(=O)Nc2ccc3c(=O)n(CC4(O)CCN(C(=O)[C@@H](CCCNC(=O)c5ccc6c(Cl)c7c(nc6c5)CCCC7)Cc5ccccc5)CC4)cnc3c2)CC1 [XL177A]
AUC (MG63_BONE): 1.147
AUC (MHHES1_BONE): 0.9854
AUC (MIAPACA2_PANCREAS): 0.7815
AUC (MKN1_STOMACH): 1.271
AUC (MKN7_STOMACH): 0.8494
AUC (MKN45_STOMACH): 0.5723
AUC (MKN74_STOMACH): 0.9306
AUC (MON_SOFT_TISSUE): 0.2802
AUC (MPP89_PLEURA): 1.207
AUC (MSTO211H_PLEURA): 0.9069
AUC (NB1_AUTONOMIC_GANGLIA): 0.8293
AUC (NCIH23_LUNG): 0.7147
AUC (NCIH28_PLEURA): 1.117
AUC (NCIH226_LUNG): 0.8849
AUC (NCIH292_LUNG): 1.012
AUC (NCIH322_LUNG): 0.9977
AUC (NCIH358_LUNG): 0.842
AUC (NCIH446_LUNG): 1.125
AUC (NCIH460_LUNG): 1.082
AUC (NCIH520_LUNG): 1.357
AUC (NCIH522_LUNG): 0.9146
AUC (NCIH596_LUNG): 0.8559
AUC (NCIH650_LUNG): 0.8175
AUC (NCIH661_LUNG): 1.081
AUC (NCIH727_LUNG): 1.196
AUC (NCIH747_LARGE_INTESTINE): 0.9621
AUC (NCIH838_LUNG): 0.9473
AUC (NCIH841_LUNG): 0.967
AUC (NCIH1048_LUNG): 1.077
AUC (NCIH1299_LUNG): 1.101
AUC (NCIH1339_LUNG): 0.9923
AUC (NCIH1355_LUNG): 0.948
AUC (NCIH1373_LUNG): 0.8577
AUC (NCIH1435_LUNG): 1.156
AUC (NCIH1437_LUNG): 0.9262
AUC (NCIH1563_LUNG): 0.7202
AUC (NCIH1568_LUNG): 0.8953
AUC (NCIH1573_LUNG): 1.235
AUC (NCIH1581_LUNG): 0.9829
AUC (NCIH1623_LUNG): 0.9673
AUC (NCIH1648_LUNG): 0.9409
AUC (NCIH1650_LUNG): 0.8271
AUC (NCIH1651_LUNG): 1.042
AUC (NCIH1693_LUNG): 0.9884
AUC (NCIH1703_LUNG): 1.041
AUC (NCIH1792_LUNG): 1.0161
AUC (NCIH1793_LUNG): 1.096
AUC (NCIH1838_LUNG): 0.9778
AUC (NCIH1915_LUNG): 0.9037
AUC (NCIH1944_LUNG): 0.9736
AUC (NCIH1975_LUNG): 0.923
AUC (NCIH2009_LUNG): 0.7912
AUC (NCIH2023_LUNG): 1.0442
AUC (NCIH2030_LUNG): 1.09
AUC (NCIH2052_PLEURA): 0.7196
AUC (NCIH2077_LUNG): 1.06
AUC (NCIH2087_LUNG): 0.9147
AUC (NCIH2110_LUNG): 1.049
AUC (NCIH2122_LUNG): 0.751
AUC (NCIH2126_LUNG): 0.9474
AUC (NCIH2170_LUNG): 1.032
AUC (NCIH2172_LUNG): 1.068
AUC (NCIH2228_LUNG): 0.9446
AUC (NCIH2347_LUNG): 0.9414
AUC (NCIH2444_LUNG): 0.981
AUC (NCIH2452_PLEURA): 1.231
AUC (NCIN87_STOMACH): 1.289
AUC (NUGC3_STOMACH): 0.9146
AUC (NUGC4_STOMACH): 0.8113
AUC (OAW42_OVARY): 0.9061
AUC (OC314_OVARY): 1.051
AUC (OC316_OVARY): 1.076
AUC (OE19_OESOPHAGUS): 1.108
AUC (OE21_OESOPHAGUS): 0.9739
AUC (OE33_OESOPHAGUS): 1.005
AUC (ONCODG1_OVARY): 0.9121
AUC (ONS76_CENTRAL_NERVOUS_SYSTEM): 0.7482
AUC (OSRC2_KIDNEY): 0.9599
AUC (OUMS23_LARGE_INTESTINE): 0.9942
AUC (OV56_OVARY): 0.9082
AUC (OVCAR8_OVARY): 1.07
AUC (OVISE_OVARY): 0.8469
AUC (OVK18_OVARY): 0.8349
AUC (OVSAHO_OVARY): 0.9469
AUC (OVTOKO_OVARY): 1.103
AUC (PANC1_PANCREAS): 0.8692
AUC (PANC0203_PANCREAS): 0.8971
AUC (PANC0327_PANCREAS): 1.196
AUC (PANC0403_PANCREAS): 1
AUC (PANC0813_PANCREAS): 0.9365
AUC (PANC1005_PANCREAS): 1.142
AUC (PATU8902_PANCREAS): 1.125
AUC (PATU8988S_PANCREAS): 1.237
AUC (PATU8988T_PANCREAS): 0.9888
AUC (PC3_PROSTATE): 0.9272
AUC (PC14_LUNG): 0.8983
AUC (PECAPJ15_UPPER_AERODIGESTIVE_TRACT): 0.8461
AUC (PECAPJ41CLONED2_UPPER_AERODIGESTIVE_TRACT): 0.7551
AUC (PECAPJ49_UPPER_AERODIGESTIVE_TRACT): 0.693
AUC (PK1_PANCREAS): 1.009
AUC (PK45H_PANCREAS): 1.081
AUC (PK59_PANCREAS): 1.041
AUC (PLCPRF5_LIVER): 1.069
AUC (PSN1_PANCREAS): 0.9727
AUC (QGP1_PANCREAS): 1.095
AUC (RCC10RGB_KIDNEY): 1.14
AUC (RCM1_LARGE_INTESTINE): 1.19
AUC (RD_SOFT_TISSUE): 0.8902
AUC (RERFLCAD1_LUNG): 1.191
AUC (RERFLCAD2_LUNG): 1.139
AUC (RERFLCAI_LUNG): 0.8829
AUC (RERFLCKJ_LUNG): 0.8002
AUC (RERFLCMS_LUNG): 1.045
AUC (RH30_SOFT_TISSUE): 0.9309
AUC (RKN_SOFT_TISSUE): 0.8534
AUC (RKO_LARGE_INTESTINE): 0.7552
AUC (RL952_ENDOMETRIUM): 0.9781
AUC (RMGI_OVARY): 0.9543
AUC (RMUGS_OVARY): 0.8888
AUC (RT4_URINARY_TRACT): 1.356
AUC (RT112_URINARY_TRACT): 1.227
